Earlier results as cited in patent US20230211112A1, “Method for emergency relief of acute ischemic attacks” (priority 2020, published 2023).

Tested on: rats
Settings: confined space

SMILES	oxygen consumption decreased (vs air environment control) [times]	time of maximum animal survival increased (vs air environment control) [times]	oxygen consumption reduced compared to the control (average, vs air environment, same initial oxygen concentration) [%]	maximum survival time increased (vs air environment control) [%]
[Xe] [xenon]	3.2	3.5	–	–
[Ar] [argon]	–	–	27	33
